Results reported in PubChem BioAssay (NCI).
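Five concentrations, 48 hours, 96-well plates. At the GI50, growth is halved. TGI: concentration producing complete growth inhibition.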

How the values were obtained:
Assay in all cases: NCI tumour cell line growth inhibition, 48 h
COLO 205 colon = system: COLO 205 colon
HL-60(TB) leukemia = system: HL-60(TB) leukemia
U251 CNS = system: U251 CNS
KM12 colon = system: KM12 colon
NCI-H23 lung = system: NCI-H23 lung
UACC-257 melanoma = system: UACC-257 melanoma
SNB-75 CNS = system: SNB-75 CNS
SF-295 CNS = system: SF-295 CNS
T-47D breast = system: T-47D breast
MOLT-4 leukemia = system: MOLT-4 leukemia
LOX IMVI melanoma = system: LOX IMVI melanoma
TK-10 renal = system: TK-10 renal
SW-620 colon = system: SW-620 colon
CCRF-CEM leukemia = system: CCRF-CEM leukemia
SR leukemia = system: SR leukemia
PC-3 prostate = system: PC-3 prostate
DU-145 prostate = system: DU-145 prostate
HCT-15 colon = system: HCT-15 colon
M14 melanoma = system: M14 melanoma
OVCAR-5 ovarian = system: OVCAR-5 ovarian
SK-MEL-28 melanoma = system: SK-MEL-28 melanoma
HCC-2998 colon = system: HCC-2998 colon
MALME-3M melanoma = system: MALME-3M melanoma
MDA-MB-231 breast = system: MDA-MB-231 breast
SF-539 CNS = system: SF-539 CNS
HT29 colon = system: HT29 colon
OVCAR-8 ovarian = system: OVCAR-8 ovarian
A549 NSCLC = system: A549 NSCLC
IGROV1 ovarian = system: IGROV1 ovarian
MCF7 breast = system: MCF7 breast
NCI-H460 lung = system: NCI-H460 lung
NCI-H522 lung = system: NCI-H522 lung
SF-268 CNS = system: SF-268 CNS
NCI/ADR-RES ovarian = system: NCI/ADR-RES ovarian
UACC-62 melanoma = system: UACC-62 melanoma
RXF 393 renal = system: RXF 393 renal
CAKI-1 renal = system: CAKI-1 renal
MDA-MB-435 = system: MDA-MB-435
OVCAR-4 ovarian = system: OVCAR-4 ovarian
HCT-116 colon = system: HCT-116 colon
ACHN renal = system: ACHN renal
NCI-H226 lung = system: NCI-H226 lung
SK-MEL-5 melanoma = system: SK-MEL-5 melanoma
SN12C renal = system: SN12C renal
786-0 renal = system: 786-0 renal
SNB-19 CNS = system: SNB-19 CNS
RPMI-8226 leukemia = system: RPMI-8226 leukemia
A498 renal = system: A498 renal
BT-549 breast = system: BT-549 breast
K-562 leukemia = system: K-562 leukemia
SK-MEL-2 melanoma = system: SK-MEL-2 melanoma
HOP-62 NSCLC = system: HOP-62 NSCLC
HOP-92 NSCLC = system: HOP-92 NSCLC
SK-OV-3 ovarian = system: SK-OV-3 ovarian
HS 578T breast = system: HS 578T breast
EKVX NSCLC = system: EKVX NSCLC
UO-31 renal = system: UO-31 renal
OVCAR-3 ovarian = system: OVCAR-3 ovarian

## CCOC(=O)c1sc(NCC(=O)Nc2cccc([N+](=O)[O-])c2)c(C(=O)OCC)c1C
COLO 205 colon
  GI50: 287 nM
  TGI: 846 nM
HL-60(TB) leukemia
  GI50: 464 nM
U251 CNS
  GI50: 274 nM
  TGI: 1080 nM
KM12 colon
  GI50: 539 nM
  TGI: 3970 nM
NCI-H23 lung
  GI50: 241 nM
  TGI: 665 nM
UACC-257 melanoma
  GI50: 1060 nM
  TGI: 5240 nM
SNB-75 CNS
  GI50: 790 nM
  TGI: 3440 nM
SF-295 CNS
  GI50: 543 nM
  TGI: 3770 nM
T-47D breast
  GI50: 1270 nM
  TGI: 3880 nM
MOLT-4 leukemia
  GI50: 342 nM
  TGI: > 33200 nM
LOX IMVI melanoma
  GI50: 172 nM
  TGI: 358 nM
TK-10 renal
  GI50: 263 nM
  TGI: 1270 nM
SW-620 colon
  GI50: 325 nM
  TGI: 1900 nM
CCRF-CEM leukemia
  GI50: 288 nM
SR leukemia
  GI50: 354 nM
PC-3 prostate
  GI50: 229 nM
  TGI: 598 nM
DU-145 prostate
  GI50: 760 nM
  TGI: 6320 nM
HCT-15 colon
  GI50: 286 nM
  TGI: 1840 nM
M14 melanoma
  GI50: 329 nM
  TGI: 1300 nM
OVCAR-5 ovarian
  GI50: 283 nM
  TGI: 824 nM
SK-MEL-28 melanoma
  GI50: 291 nM
  TGI: 883 nM
HCC-2998 colon
  GI50: 1400 nM
  TGI: 3470 nM
MALME-3M melanoma
  GI50: 231 nM
  TGI: 598 nM
MDA-MB-231 breast
  GI50: 1230 nM
  TGI: 3850 nM
SF-539 CNS
  GI50: 300 nM
  TGI: 880 nM
HT29 colon
  GI50: 272 nM
  TGI: 821 nM
OVCAR-8 ovarian
  GI50: 375 nM
A549 NSCLC
  GI50: 461 nM
  TGI: 3060 nM
IGROV1 ovarian
  GI50: 238 nM
  TGI: 693 nM
MCF7 breast
  GI50: 274 nM
  TGI: 1030 nM
NCI-H460 lung
  GI50: 313 nM
  TGI: 963 nM
NCI-H522 lung
  GI50: 251 nM
  TGI: 757 nM
SF-268 CNS
  GI50: 961 nM
  TGI: 3740 nM
NCI/ADR-RES ovarian
  GI50: 319 nM
  TGI: 1580 nM
UACC-62 melanoma
  GI50: 173 nM
  TGI: 381 nM
RXF 393 renal
  GI50: 175 nM
  TGI: 348 nM
CAKI-1 renal
  GI50: 267 nM
  TGI: 810 nM
MDA-MB-435
  GI50: 486 nM
  TGI: 1760 nM
OVCAR-4 ovarian
  GI50: 897 nM
  TGI: 5180 nM
HCT-116 colon
  GI50: 303 nM
  TGI: 1360 nM
ACHN renal
  GI50: 289 nM
  TGI: 797 nM
NCI-H226 lung
  GI50: 230 nM
  TGI: 602 nM
SK-MEL-5 melanoma
  GI50: 346 nM
  TGI: 1230 nM
SN12C renal
  GI50: 285 nM
  TGI: 930 nM
786-0 renal
  GI50: 254 nM
  TGI: 907 nM
SNB-19 CNS
  GI50: 496 nM
  TGI: 4740 nM
RPMI-8226 leukemia
  GI50: 366 nM
  TGI: 1750 nM
A498 renal
  GI50: 309 nM
  TGI: 1160 nM
BT-549 breast
  GI50: 258 nM
  TGI: 769 nM
K-562 leukemia
  GI50: 333 nM
  TGI: > 36700 nM
SK-MEL-2 melanoma
  GI50: 1770 nM
  TGI: 4790 nM
HOP-62 NSCLC
  GI50: 1020 nM
  TGI: 4130 nM
HOP-92 NSCLC
  GI50: 221 nM
  TGI: 873 nM
SK-OV-3 ovarian
  GI50: 307 nM
  TGI: 838 nM
HS 578T breast
  GI50: 270 nM
  TGI: 1030 nM
EKVX NSCLC
  GI50: 1650 nM
  TGI: 4530 nM
UO-31 renal
  GI50: 202 nM
  TGI: 522 nM
OVCAR-3 ovarian
  GI50: 376 nM
  TGI: 1750 nM
